Measured values reported in PubChem BioAssay (NCI).
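Growth conditions: 96-well plates. Treatment: test compound, 48 hours, 5 concentrations. Analysis: linear interpolation between bracketing concentrations; unreached endpoints set to highest concentration. At the TGI there is no net growth.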

Experiments:
Test in all cases: growth of human tumour cells (NCI), 48 h
OVCAR-5 ovarian = test system: OVCAR-5 ovarian
MCF7 breast = test system: MCF7 breast
MDA-MB-231 breast = test system: MDA-MB-231 breast
NCI-H23 lung = test system: NCI-H23 lung
SK-MEL-2 melanoma = test system: SK-MEL-2 melanoma
NCI-H522 lung = test system: NCI-H522 lung
LOX IMVI melanoma = test system: LOX IMVI melanoma
SNB-75 CNS = test system: SNB-75 CNS
M14 melanoma = test system: M14 melanoma
SF-268 CNS = test system: SF-268 CNS
SN12C renal = test system: SN12C renal
MALME-3M melanoma = test system: MALME-3M melanoma
MOLT-4 leukemia = test system: MOLT-4 leukemia
HCT-116 colon = test system: HCT-116 colon
HCC-2998 colon = test system: HCC-2998 colon
HOP-62 NSCLC = test system: HOP-62 NSCLC
UO-31 renal = test system: UO-31 renal
MDA-MB-435 = test system: MDA-MB-435
OVCAR-8 ovarian = test system: OVCAR-8 ovarian
EKVX NSCLC = test system: EKVX NSCLC
DU-145 prostate = test system: DU-145 prostate
NCI-H460 lung = test system: NCI-H460 lung
HOP-92 NSCLC = test system: HOP-92 NSCLC
UACC-62 melanoma = test system: UACC-62 melanoma
TK-10 renal = test system: TK-10 renal
OVCAR-3 ovarian = test system: OVCAR-3 ovarian
PC-3 prostate = test system: PC-3 prostate
SR leukemia = test system: SR leukemia
OVCAR-4 ovarian = test system: OVCAR-4 ovarian
SK-MEL-5 melanoma = test system: SK-MEL-5 melanoma
NCI-H226 lung = test system: NCI-H226 lung
U251 CNS = test system: U251 CNS
CAKI-1 renal = test system: CAKI-1 renal
SK-OV-3 ovarian = test system: SK-OV-3 ovarian
T-47D breast = test system: T-47D breast
HCT-15 colon = test system: HCT-15 colon
SK-MEL-28 melanoma = test system: SK-MEL-28 melanoma
MDA-N = test system: MDA-N
NCI/ADR-RES ovarian = test system: NCI/ADR-RES ovarian
ACHN renal = test system: ACHN renal
SF-539 CNS = test system: SF-539 CNS
786-0 renal = test system: 786-0 renal
A549 NSCLC = test system: A549 NSCLC
HT29 colon = test system: HT29 colon
A498 renal = test system: A498 renal
IGROV1 ovarian = test system: IGROV1 ovarian
RPMI-8226 leukemia = test system: RPMI-8226 leukemia
SNB-19 CNS = test system: SNB-19 CNS
SW-620 colon = test system: SW-620 colon
SF-295 CNS = test system: SF-295 CNS
RXF 393 renal = test system: RXF 393 renal
KM12 colon = test system: KM12 colon
COLO 205 colon = test system: COLO 205 colon
CCRF-CEM leukemia = test system: CCRF-CEM leukemia
HL-60(TB) leukemia = test system: HL-60(TB) leukemia
UACC-257 melanoma = test system: UACC-257 melanoma
K-562 leukemia = test system: K-562 leukemia
BT-549 breast = test system: BT-549 breast

Question: With Oc1[nH]c2ccccc2c1N=NC(=S)N1CCCCC1 as the compound, how does the TGI (OVCAR-5 ovarian) read?
Answer: 21.1 µM

Question: And the TGI (MCF7 breast)?
Answer: 6.26 µM

Question: What about the TGI (MDA-MB-231 breast) of the same compound?
Answer: 2.79 µM

Question: What about the TGI (NCI-H23 lung) of the same compound?
Answer: 9.14 µM

Question: And the TGI (SK-MEL-2 melanoma)?
Answer: 6.12 µM

Question: And the TGI (NCI-H522 lung)?
Answer: 15.5 µM

Question: What about the TGI (LOX IMVI melanoma) of the same compound?
Answer: 3.2 µM

Question: And the TGI (SNB-75 CNS)?
Answer: 6.71 µM

Question: And the TGI (M14 melanoma)?
Answer: 2.23 µM

Question: What about the TGI (SF-268 CNS) of the same compound?
Answer: 14.3 µM

Question: What about the TGI (SN12C renal) of the same compound?
Answer: 15.1 µM

Question: And the TGI (MALME-3M melanoma)?
Answer: 2.2 µM

Question: What about the TGI (MOLT-4 leukemia) of the same compound?
Answer: 2.15 µM

Question: What about the TGI (HCT-116 colon) of the same compound?
Answer: 1.54 µM

Question: What about the TGI (HCC-2998 colon) of the same compound?
Answer: 8.87 µM

Question: And the TGI (HOP-62 NSCLC)?
Answer: 3.83 µM

Question: What about the TGI (UO-31 renal) of the same compound?
Answer: 3.23 µM

Question: What about the TGI (MDA-MB-435) of the same compound?
Answer: 4.58 µM

Question: And the TGI (OVCAR-8 ovarian)?
Answer: 1.8 µM

Question: And the TGI (EKVX NSCLC)?
Answer: 9.75 µM

Question: And the TGI (DU-145 prostate)?
Answer: 10.9 µM

Question: And the TGI (NCI-H460 lung)?
Answer: 2.29 µM

Question: What about the TGI (HOP-92 NSCLC) of the same compound?
Answer: 6.58 µM

Question: And the TGI (UACC-62 melanoma)?
Answer: 4.01 µM

Question: What about the TGI (TK-10 renal) of the same compound?
Answer: 3.84 µM

Question: And the TGI (OVCAR-3 ovarian)?
Answer: 1.7 µM

Question: And the TGI (PC-3 prostate)?
Answer: 10.3 µM

Question: And the TGI (SR leukemia)?
Answer: 4.31 µM

Question: And the TGI (OVCAR-4 ovarian)?
Answer: 4.48 µM

Question: And the TGI (SK-MEL-5 melanoma)?
Answer: 1.03 µM

Question: What about the TGI (NCI-H226 lung) of the same compound?
Answer: 5.02 µM

Question: And the TGI (U251 CNS)?
Answer: 7.83 µM

Question: And the TGI (CAKI-1 renal)?
Answer: 4.43 µM

Question: And the TGI (SK-OV-3 ovarian)?
Answer: 7.62 µM

Question: And the TGI (T-47D breast)?
Answer: 20 µM

Question: What about the TGI (HCT-15 colon) of the same compound?
Answer: 2.42 µM

Question: What about the TGI (SK-MEL-28 melanoma) of the same compound?
Answer: 12.2 µM

Question: And the TGI (MDA-N)?
Answer: 15.5 µM

Question: And the TGI (NCI/ADR-RES ovarian)?
Answer: 0.635 µM

Question: What about the TGI (ACHN renal) of the same compound?
Answer: 5.97 µM

Question: What about the TGI (SF-539 CNS) of the same compound?
Answer: 1.49 µM

Question: What about the TGI (786-0 renal) of the same compound?
Answer: 6.64 µM

Question: And the TGI (A549 NSCLC)?
Answer: 3.44 µM

Question: What about the TGI (HT29 colon) of the same compound?
Answer: 10.8 µM

Question: What about the TGI (A498 renal) of the same compound?
Answer: 1.99 µM

Question: What about the TGI (IGROV1 ovarian) of the same compound?
Answer: 1.77 µM

Question: And the TGI (RPMI-8226 leukemia)?
Answer: 2.43 µM

Question: What about the TGI (SNB-19 CNS) of the same compound?
Answer: 12.5 µM

Question: What about the TGI (SW-620 colon) of the same compound?
Answer: 8.63 µM

Question: And the TGI (SF-295 CNS)?
Answer: 3.36 µM

Question: What about the TGI (RXF 393 renal) of the same compound?
Answer: 2.65 µM

Question: And the TGI (KM12 colon)?
Answer: 1.62 µM

Question: What about the TGI (COLO 205 colon) of the same compound?
Answer: 11.2 µM

Question: For CC1(C)OCC2(CO1)CSCCCSCC1(COC(C)(C)OC1)CSCCCSC2, which TGI (OVCAR-5 ovarian) is on record?
Answer: > 100 µM

Question: And the TGI (MDA-MB-231 breast)?
Answer: > 100 µM

Question: What about the TGI (NCI-H23 lung) of the same compound?
Answer: > 100 µM

Question: What about the TGI (NCI-H522 lung) of the same compound?
Answer: > 100 µM

Question: And the TGI (LOX IMVI melanoma)?
Answer: > 100 µM

Question: And the TGI (SNB-75 CNS)?
Answer: > 100 µM

Question: What about the TGI (M14 melanoma) of the same compound?
Answer: > 100 µM

Question: And the TGI (SF-268 CNS)?
Answer: > 100 µM

Question: What about the TGI (SN12C renal) of the same compound?
Answer: > 100 µM

Question: What about the TGI (MOLT-4 leukemia) of the same compound?
Answer: > 100 µM

Question: And the TGI (HCT-116 colon)?
Answer: > 100 µM

Question: What about the TGI (CCRF-CEM leukemia) of the same compound?
Answer: > 100 µM

Question: What about the TGI (HL-60(TB) leukemia) of the same compound?
Answer: > 100 µM

Question: What about the TGI (HCC-2998 colon) of the same compound?
Answer: > 100 µM

Question: And the TGI (HOP-62 NSCLC)?
Answer: > 100 µM

Question: What about the TGI (UO-31 renal) of the same compound?
Answer: > 100 µM

Question: What about the TGI (MDA-MB-435) of the same compound?
Answer: > 100 µM

Question: What about the TGI (OVCAR-8 ovarian) of the same compound?
Answer: > 100 µM

Question: And the TGI (EKVX NSCLC)?
Answer: > 100 µM

Question: And the TGI (DU-145 prostate)?
Answer: > 100 µM

Question: What about the TGI (NCI-H460 lung) of the same compound?
Answer: > 100 µM

Question: And the TGI (HOP-92 NSCLC)?
Answer: > 100 µM

Question: And the TGI (UACC-62 melanoma)?
Answer: > 100 µM

Question: And the TGI (TK-10 renal)?
Answer: > 100 µM

Question: What about the TGI (OVCAR-3 ovarian) of the same compound?
Answer: > 100 µM

Question: What about the TGI (PC-3 prostate) of the same compound?
Answer: > 100 µM

Question: And the TGI (SR leukemia)?
Answer: > 100 µM

Question: What about the TGI (UACC-257 melanoma) of the same compound?
Answer: > 100 µM

Question: And the TGI (OVCAR-4 ovarian)?
Answer: > 100 µM

Question: And the TGI (SK-MEL-5 melanoma)?
Answer: > 100 µM

Question: What about the TGI (K-562 leukemia) of the same compound?
Answer: > 100 µM

Question: And the TGI (U251 CNS)?
Answer: > 100 µM

Question: What about the TGI (SK-OV-3 ovarian) of the same compound?
Answer: > 100 µM

Question: And the TGI (T-47D breast)?
Answer: > 100 µM

Question: And the TGI (HCT-15 colon)?
Answer: > 100 µM

Question: And the TGI (SK-MEL-28 melanoma)?
Answer: > 100 µM

Question: And the TGI (MDA-N)?
Answer: > 100 µM

Question: And the TGI (BT-549 breast)?
Answer: > 100 µM

Question: What about the TGI (NCI/ADR-RES ovarian) of the same compound?
Answer: > 100 µM

Question: And the TGI (SF-539 CNS)?
Answer: > 100 µM

Question: What about the TGI (786-0 renal) of the same compound?
Answer: > 100 µM

Question: And the TGI (A549 NSCLC)?
Answer: > 100 µM

Question: What about the TGI (HT29 colon) of the same compound?
Answer: > 100 µM

Question: And the TGI (IGROV1 ovarian)?
Answer: > 100 µM

Question: And the TGI (RPMI-8226 leukemia)?
Answer: > 100 µM

Question: And the TGI (SNB-19 CNS)?
Answer: > 100 µM

Question: And the TGI (SW-620 colon)?
Answer: > 100 µM

Question: What about the TGI (SF-295 CNS) of the same compound?
Answer: > 100 µM

Question: And the TGI (KM12 colon)?
Answer: > 100 µM

Question: What about the TGI (COLO 205 colon) of the same compound?
Answer: > 100 µM
